From PubChem BioAssay AID1963832 (Molecular Pharmacology Branch, DTP, NCI, 2024)
pIC50: −log10 of the molar value.

Tested on: 885724-159-R-J1-PDC complex spheroid viability
Assay: Anticancer human tumor 885724-159-R-J1-PDC patient-derived pancreatic adenocarcinoma cell line growth inhibition [POLQ]
Details: for pIC50: curve of first compound; for viability, T/C: stronger effect = lower value; active means viability on the fitted dose curve at most 10% of control; inactive means the rest
Method: Multicellular complex tumor spheroid response to Polymerase (POL) inhibitors (novobiocin, ART-558, RP6685) in combination with a variety of drugs and investigational agents in selected tumor cell lines
The POL inhibitors (novobiocin, ART-558, and RP6685) were evaluated both individually and in combination with standard of care and investigational anticancer small molecules within a complex spheroid model of solid tumors. . Complex spheroids include a stromal component modeled by human endothelial cells (HUVEC) and fibroblasts modeled by human mesenchymal stem cells (MSCs). The concentration ranges selected for each drug and investigational agent were based upon clinically achievable concentrations if the clinical Cmax of the agent was known.
Compounds. The drugs and investigational agents: novobiocin (NSC847541), ART-558 (NSC835418), RP-6685 (NSC848927), peposertib (NSC802822), ceralasertib (NSC780249), elimusertib (NSC800525), camonsertib (NSC841442), AZD-1390 (NSC803789), olaparib (NSC753686), talazoparib (NSC767125), rucaparib (NSC756644), sotorasib (NSC818433), MRTX-1133 (NSC836407), SN-38 (NSC673596), topotecan (NSC609699), epotoside (NSC141540), doxorubicin (NSC123127), gemcitabine (NSC613327), 5-fluorouracil (NSC19893), paclitaxel (NSC125973), vemurafenib (NSC761431), MSA-2 (NSC828583), SN-011 (NSC837082), adavosertib (NSC754352), prexasertib (NSC758257), carboplatin (NSC241240) and oxaliplatin (NSC266046), were obtained from the National Cancer Institute (NCI) Developmental Therapeutics Program Chemical Repository (21). The FDA-approved anticancer drug set is available from the Developmental Therapeutics Program at https://dtp.cancer.gov/organization/dscb/obtaining/. […] The stock solutions were prepared in dimethyl sulfoxide (DMSO, Sigma-Aldrich, St. Louis, MO, cat. D2650), except for the platinum compounds which were prepared in saline (Quality Biological, Gaithersburg, MD, cat. 114-055-101), at 800-fold the tested concentration and stored at -70 degrees C prior to their use. All drugs and investigational agents were tested over a range starting from a high concentration at or near the clinical Cmax and decreasing in half-log increments. If the clinical Cmax for an agent had not been determined, the highest concentration tested was 10 microM, except for SN-38, which was tested at a high concentration of 1 microM.
Cell Culture. All cells were maintained in an incubator at 37 degrees C and 5% CO2 with 95% humidity. The PDC lines were cultured according to standard operating procedures established by the NCI PDMR (https://pdmr.cancer.gov). Table 3 of the manuscript, lists the cell lines along with the number of the three cell types plated to form the mct-spheroids and media for tumor cell growth. After thawing, all PDC lines, except 997537-175-T-J1-PDC and 415267-285-R-J2-PDC, were cultured in Matrigel-coated flasks prepared with a working solution of 1X Ham's F-12 nutrient mix, without supplementation (Thermo Fisher Scientific, cat. 11765054), 100 U/mL penicillin-streptomycin (Thermo Fisher Scientific, cat. 15140122), and 2.5% Matrigel (Corning Inc., Corning, NY, cat. 354248) for the first three passages. The two PDC lines 997537-175-T-J1-PDC and 415267-285-R-J2-PDC were cultured on uncoated flasks. The 857933-349-R-J2-PDC line was cultured in 6C/Colon 1B media containing advanced DMEM/F-12 (Thermo Fisher Scientific, cat. 12634028), 10 mM HEPES (Thermo Fisher Scientific, cat. 15630080), 1X GlutaMAX supplement (Thermo Fisher Scientific, cat. 35050061), 0.1 mg/mL primocin (InvivoGen, San Diego, CA, cat. ant-pm-2), 10% defined fetal bovine serum, heat inactivated (HyClone Laboratories Inc., Logan, UT, cat. SH30070.03HI), 50% L-WRN conditioned media (ATCC, cat. CRL-3276), 1.25 mM N-Acetyl-L-cysteine (Sigma-Aldrich, cat. A9165), 10 mM nicotinamide (Sigma-Aldrich, cat. N0636), 1X B-27 supplement (Thermo Fisher Scientific, cat. 17504044), 1X N-2 supplement (Thermo Fisher Scientific, cat. […]

[1] = second compound 0.0316 µM, first compound 0.0316 µM
[2] = second compound 0.0316 µM, first compound 0.1 µM
[3] = second compound 0.1 µM, first compound 0.0316 µM
[4] = second compound 0.1 µM, first compound 0.1 µM
[5] = second compound 0.316 µM, first compound 0.0316 µM
[6] = second compound 0.316 µM, first compound 0.1 µM
[7] = second compound 1 µM, first compound 0.0316 µM
[8] = second compound 1 µM, first compound 0.1 µM
[9] = second compound 3.16 µM, first compound 0.0316 µM
[10] = second compound 3.16 µM, first compound 0.1 µM
[11] = second compound 10 µM, first compound 0.0316 µM
[12] = second compound 10 µM, first compound 0.1 µM
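Further: spheroids exposed to compounds for 7 days.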

CC(C)n1c(=O)n(C)c2cnc3cc(F)c(-c4ccc(OCCCN5CCCCC5)nc4)cc3c21 + Cc1cccc(N(C)C(=O)C2C(O)CCN2c2nc(C)cc(C(F)(F)F)c2C#N)c1
inactive: viability, T/C [1] 104% | viability, T/C [2] 104% | viability, T/C (second compound 0.0316 µM, first compound 0.316 µM) 99.9% | viability, T/C (second compound 0.0316 µM, first compound 1 µM) 97.8% | viability, T/C (second compound 0.0316 µM, first compound 3.16 µM) 93.9% | viability, T/C (second compound 0.0316 µM, first compound 10 µM) 68.8% | viability, T/C [3] 108% | viability, T/C [4] 95.8% | viability, T/C (second compound 0.1 µM, first compound 0.316 µM) 109% | viability, T/C (second compound 0.1 µM, first compound 1 µM) 91.2% | viability, T/C (second compound 0.1 µM, first compound 3.16 µM) 96.8% | viability, T/C (second compound 0.1 µM, first compound 10 µM) 72.2% | viability, T/C [5] 109% | viability, T/C [6] 102% | viability, T/C (second compound 0.316 µM, first compound 0.316 µM) 102% | viability, T/C (second compound 0.316 µM, first compound 1 µM) 98.8% | viability, T/C (second compound 0.316 µM, first compound 3.16 µM) 99.3% | viability, T/C (second compound 0.316 µM, first compound 10 µM) 66.6% | viability, T/C [7] 104% | viability, T/C [8] 100% | viability, T/C (second compound 1 µM, first compound 0.316 µM) 104% | viability, T/C (second compound 1 µM, first compound 1 µM) 116% | viability, T/C (second compound 1 µM, first compound 3.16 µM) 87.7% | viability, T/C (second compound 1 µM, first compound 10 µM) 60.2% | viability, T/C [9] 106% | viability, T/C [10] 112% | viability, T/C (second compound 3.16 µM, first compound 0.316 µM) 107% | viability, T/C (second compound 3.16 µM, first compound 1 µM) 102% | viability, T/C (second compound 3.16 µM, first compound 3.16 µM) 86.2% | viability, T/C (second compound 3.16 µM, first compound 10 µM) 61.3% | viability, T/C [11] 106% | viability, T/C [12] 95.4% | viability, T/C (second compound 10 µM, first compound 0.316 µM) 111% | viability, T/C (second compound 10 µM, first compound 1 µM) 101% | viability, T/C (second compound 10 µM, first compound 3.16 µM) 88.9% | viability, T/C (second compound 10 µM, first compound 10 µM) 60.7%
< 5.00: pIC50 (second compound 0.0316 µM) | pIC50 (second compound 0.1 µM) | pIC50 (second compound 0.316 µM) | pIC50 (second compound 1 µM) | pIC50 (second compound 3.16 µM) | pIC50 (second compound 10 µM)

Cn1ncnc1[C@H]1c2n[nH]c(=O)c3cc(F)cc(c23)N[C@@H]1c1ccc(F)cc1 + Cc1cccc(N(C)C(=O)C2C(O)CCN2c2nc(C)cc(C(F)(F)F)c2C#N)c1
< 7.00: pIC50 (second compound 0.0316 µM) | pIC50 (second compound 0.1 µM) | pIC50 (second compound 0.316 µM) | pIC50 (second compound 1 µM) | pIC50 (second compound 3.16 µM) | pIC50 (second compound 10 µM)
inactive: viability, T/C (second compound 0.0316 µM, first compound 0.000316 µM) 97.2% | viability, T/C (second compound 0.0316 µM, first compound 0.001 µM) 86.9% | viability, T/C (second compound 0.0316 µM, first compound 0.00316 µM) 96.1% | viability, T/C (second compound 0.0316 µM, first compound 0.01 µM) 86.3% | viability, T/C [1] 93.6% | viability, T/C [2] 87.5% | viability, T/C (second compound 0.1 µM, first compound 0.000316 µM) 96.9% | viability, T/C (second compound 0.1 µM, first compound 0.001 µM) 95% | viability, T/C (second compound 0.1 µM, first compound 0.00316 µM) 92.9% | viability, T/C (second compound 0.1 µM, first compound 0.01 µM) 91.7% | viability, T/C [3] 99.9% | viability, T/C [4] 87.8% | viability, T/C (second compound 0.316 µM, first compound 0.000316 µM) 112% | viability, T/C (second compound 0.316 µM, first compound 0.001 µM) 97.1% | viability, T/C (second compound 0.316 µM, first compound 0.00316 µM) 93.2% | viability, T/C (second compound 0.316 µM, first compound 0.01 µM) 93.5% | viability, T/C [5] 100% | viability, T/C [6] 86.4% | viability, T/C (second compound 1 µM, first compound 0.000316 µM) 98.5% | viability, T/C (second compound 1 µM, first compound 0.001 µM) 101% | viability, T/C (second compound 1 µM, first compound 0.00316 µM) 89.2% | viability, T/C (second compound 1 µM, first compound 0.01 µM) 84.5% | viability, T/C [7] 92.9% | viability, T/C [8] 88.5% | viability, T/C (second compound 3.16 µM, first compound 0.000316 µM) 98.3% | viability, T/C (second compound 3.16 µM, first compound 0.001 µM) 101% | viability, T/C (second compound 3.16 µM, first compound 0.00316 µM) 86.4% | viability, T/C (second compound 3.16 µM, first compound 0.01 µM) 89.6% | viability, T/C [9] 88.6% | viability, T/C [10] 84.7% | viability, T/C (second compound 10 µM, first compound 0.000316 µM) 93.7% | viability, T/C (second compound 10 µM, first compound 0.001 µM) 95.9% | viability, T/C (second compound 10 µM, first compound 0.00316 µM) 98.1% | viability, T/C (second compound 10 µM, first compound 0.01 µM) 94.4% | viability, T/C [11] 94.1% | viability, T/C [12] 80%
